SMILES strings stand for the structures.

What all share (type): functional, organism-based
Conditions in all cases: Hippocampus

The species entered for test [1] is Rattus norvegicus. Kind of test: Effect on the uptake amount of [3H]choline in the hippocampal synaptosomes of AF64A-treated rats at 10e-6 M.
Test [2] is filed under the species Rattus norvegicus. Kind of test: Effect on the uptake amount of [3H]choline in the hippocampal synaptosomes of AF64A-treated rats at 10e-7 M.
For test [3], the species on record is Rattus norvegicus. Kind of test: Effect on the uptake amount of [3H]choline in the hippocampal synaptosomes of AF64A-treated rats at 10e-5 M.

For `CCCC(=O)Nc1c2c(nc3ccccc13)C1CCC2CC1`, the HACU improvement in the test filed under Rattus norvegicus [1] was -6%; in the test listed under Rattus norvegicus [2] it was 5%; in the test filed under Rattus norvegicus [3], -3%.
With `O=C(CN1CCCC1=O)Nc1c2c(nc3ccccc13)CCCC2`, the HACU improvement came out at 17% in the test filed under Rattus norvegicus [1], 15% in the test listed under Rattus norvegicus [2] and 14% in the test listed under Rattus norvegicus [3].
As to `CCCC(=O)Nc1c2c(nc3ccccc13)CCN(Cc1ccccc1)C2`, the results for the HACU improvement in the test filed under Rattus norvegicus [1], in the test listed under Rattus norvegicus [2] and in the test filed under Rattus norvegicus [3] were 11%, 10% and 21%, respectively.
For `CCCC(=O)Nc1c2c(nc3cc(F)ccc13)CCCC2`, the HACU improvement in the test filed under Rattus norvegicus [1] is 3%; in the test listed under Rattus norvegicus [2], -1%; in the test listed under Rattus norvegicus [3], -15%.
`CCCC(=O)Nc1c2c(nc3cccc(F)c13)CCCC2`: the HACU improvement in the test filed under Rattus norvegicus [1] was found to be 2%; in the test listed under Rattus norvegicus [2], 9%; in the test filed under Rattus norvegicus [3] it was 3%.
With `CCCC(=O)Nc1c2c(nc3ccccc13)CCC(c1ccccc1)C2` (stereo not drawn), the HACU improvement in the test filed under Rattus norvegicus [1] was -7%; in the test filed under Rattus norvegicus [2], -1%; in the test filed under Rattus norvegicus [3], -6%.
For `CCCC(=O)Nc1c2c(nc3sccc13)CCCC2`, the HACU improvement in the test filed under Rattus norvegicus [1] was determined as 1%; in the test filed under Rattus norvegicus [2] it was 1%; in the test filed under Rattus norvegicus [3], 12%.
Take `CCCC(=O)Nc1c2c(nc3oc(C)nc13)CCCC2`: the values for the HACU improvement in the test listed under Rattus norvegicus [1], in the test filed under Rattus norvegicus [2] and in the test listed under Rattus norvegicus [3] were 2%, 4% and 18%, respectively.
On the same counts, the results for `CCCC(=O)Nc1c2c(nc3ccccc13)C=CCC2` are 8%, 14% and -7%.
Consider `CCCC(=O)Nc1c2c(nc3ccccc13)CCC(=O)C2`, for which the HACU improvement in the test listed under Rattus norvegicus [1], in the test filed under Rattus norvegicus [2] and in the test filed under Rattus norvegicus [3] was 14% throughout.
Consider `CCCC(=O)Nc1c2c(nc3scc(C)c13)CCCC2`, for which the HACU improvement in the test listed under Rattus norvegicus [1] came to 3%; in the test listed under Rattus norvegicus [2], 7%; in the test listed under Rattus norvegicus [3], 1%.
On to `CCCC(=O)Nc1c2c(nc3ccccc13)CCC(C)(C)C2`, for which the HACU improvement was 3% in the test filed under Rattus norvegicus [1], -11% in the test listed under Rattus norvegicus [2] and 1% in the test filed under Rattus norvegicus [3].
`CCCC(=O)Nc1c2c(nc3ccccc13)CCC(O)C2` (stereo not drawn): the values for the HACU improvement in the test filed under Rattus norvegicus [1], in the test listed under Rattus norvegicus [2] and in the test listed under Rattus norvegicus [3] were 16%, 13% and 10%, respectively.
As to `Cc1oc2nc3c(c(NC(=O)Cn4ccnc4)c2c1C)CCCC3`, the HACU improvement came to 4% in the test filed under Rattus norvegicus [1], 5% in the test listed under Rattus norvegicus [2] and 3% in the test filed under Rattus norvegicus [3].
Regarding `CCCC(=O)Nc1c2c(nc3ccccc13)CCC(C)C2` (stereo not drawn), the HACU improvement was -16% in the test filed under Rattus norvegicus [1], -6% in the test listed under Rattus norvegicus [2] and 6% in the test filed under Rattus norvegicus [3].
Turning to `CCCC(=O)Nc1c2c(nc3ccccc13)C(C)CCC2` (stereo not drawn), the HACU improvement in the test filed under Rattus norvegicus [1] was determined as 17%; in the test listed under Rattus norvegicus [2], 10%; in the test filed under Rattus norvegicus [3], 16%.
`CCCC(=O)Nc1c2c(nc3oc(C)c(C)c13)CCCC2`: the HACU improvement in the test filed under Rattus norvegicus [1] worked out at 20%; in the test listed under Rattus norvegicus [2], 13%; in the test filed under Rattus norvegicus [3] it was 38%.
As to `CCCC(=O)Nc1c2c(nc3ccccc13)CCC1(CC1)C2`, the HACU improvement was 19% in the test listed under Rattus norvegicus [1], 3% in the test filed under Rattus norvegicus [2] and 12% in the test listed under Rattus norvegicus [3].
On the same counts, the results for `Cc1oc2nc3c(c(NC(=O)CN4CC(=O)NC4=O)c2c1C)CCCC3` are 12%, 5% and 16%.
Regarding `CCCC(=O)Nc1c2c(nc3ccsc13)CCCC2`, the results for the HACU improvement in the test listed under Rattus norvegicus [1], in the test listed under Rattus norvegicus [2] and in the test listed under Rattus norvegicus [3] were 4%, 7% and 15%, respectively.
The corresponding values for `CCCC(=O)Nc1c2c(nc3cccc(C)c13)CCCC2` are -4%, -2% and 10%.
Consider `CCCC(=O)Nc1c2c(nc3ccc(F)cc13)CCCC2`, for which the values for the HACU improvement in the test listed under Rattus norvegicus [1], in the test listed under Rattus norvegicus [2] and in the test listed under Rattus norvegicus [3] were -5%, 2% and 7%, respectively.
Consider `CCCC(=O)Nc1c2c(nc3ccccc13)CCN(C(=O)c1ccccc1)C2`, for which the HACU improvement in the test filed under Rattus norvegicus [1] was 0%; in the test filed under Rattus norvegicus [2], 7%; in the test listed under Rattus norvegicus [3], -7%.
On the same counts, the results for `CCCC(=O)Nc1c2c(nc3ccccc13)CCN(C)C2` are 9%, 13% and 19%.
Turning to `CCCC(=O)Nc1c2c(nc3sc(C)c(C)c13)CCCC2`, the HACU improvement in the test listed under Rattus norvegicus [1] was determined as 11%; in the test filed under Rattus norvegicus [2], 4%; in the test filed under Rattus norvegicus [3], 20%.
On to `CCCC(=O)Nc1c2c(nc3ccccc13)C1CCN2CC1`, for which the figures for the HACU improvement in the test filed under Rattus norvegicus [1], in the test filed under Rattus norvegicus [2] and in the test filed under Rattus norvegicus [3] were 7%, 7% and 10%, respectively.
Regarding `Cc1oc2nc3c(c(NC(=O)CN4CCCC4=O)c2c1C)CCCC3`, the figures for the HACU improvement in the test filed under Rattus norvegicus [1], in the test listed under Rattus norvegicus [2] and in the test listed under Rattus norvegicus [3] were 72%, 55% and 64%, respectively.
As to `CNCC(=O)Nc1c2c(nc3oc(C)c(C)c13)CCCC2`, the HACU improvement worked out at 10% in the test listed under Rattus norvegicus [1], 14% in the test listed under Rattus norvegicus [2] and 3% in the test filed under Rattus norvegicus [3].
In the case of `CCCC(=O)Nc1c2c(nc3ncccc13)CCCC2`, the HACU improvement was 10% in the test filed under Rattus norvegicus [1], 15% in the test filed under Rattus norvegicus [2] and 13% in the test filed under Rattus norvegicus [3].
Turning to `CCCC(=O)Nc1c2c(nc3ccccc13)CCCC2`, the results for the HACU improvement in the test filed under Rattus norvegicus [1], in the test filed under Rattus norvegicus [2] and in the test listed under Rattus norvegicus [3] were 24%, 13% and 28%, respectively.
On the same counts, the results for `CCCC(=O)Nc1c2c(nc3ccccc13)CCN(S(=O)(=O)c1ccccc1)C2` are 10%, 26% and 5%.

(Values after ChEMBL document CHEMBL1150023, “Design and syntheses of 4-acylaminopyridine derivatives: Novel high affinity choline uptake enhancers II” (Bioorg Med Chem Lett, 1995).)
